Test: xn = mol fraction of the nth substance listed
Details: 100 kPa, x1 = 1

CCCC[n+]1ccn(C)c1.F[P-](F)(F)(F)(F)F + CCCC[n+]1ccn(C)c1.O=S(=O)([O-])C(F)(F)F
viscosity (293.15 K): 337 mPa·s
viscosity (298.15 K): 257 mPa·s
viscosity (303.15 K): 197.6 mPa·s
viscosity (308.15 K): 148.3 mPa·s
viscosity (313.15 K): 112 mPa·s
viscosity (323.15 K): 71 mPa·s
viscosity (328.15 K): 59.7 mPa·s
